Assays:
late watergrass = experiment: Test Example 1: herbicidal activity, application before weed generation under submerged conditions (Table 16, symbol A); format: in vivo, late watergrass (Echinochloa oryzicola); settings: amount of applied herbicide 320 g/ha
Outline: (§1)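 Submerged Wagner pots (alluvial soil, 4 cm water) sown with weed seeds and planted with 2.5-leaf rice seedlings; emulsifiable concentrate diluted in water applied to water surface on sowing day. Held in greenhouse at 25-30 °C; injury scored 0-5 by herbicidal rate after three weeks.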

Japanese bulrush = experiment: Test Example 1: herbicidal activity, application before weed generation under submerged conditions (Table 16, symbol B); format: in vivo, Japanese bulrush (Schoenoplectus juncoides); settings: amount of applied herbicide 320 g/ha
Outline: as §1

oval-leafed pondweed = experiment: Test Example 1: herbicidal activity, application before weed generation under submerged conditions (Table 16, symbol C); format: in vivo, oval-leafed pondweed (Monochoria vaginalis); settings: amount of applied herbicide 320 g/ha
Outline: as §1

barnyard grass [1] = experiment: Test Example 3: herbicidal effect by foliage application, Wagner pot (Table 18, symbol H); format: in vivo, barnyard grass (Echinochloa crus-galli); settings: 320 g/ha
Outline: (§2)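 Plants were sown in alluvial soil held under 0.1–0.5 cm standing water and grown 14 days in a greenhouse at 25–30 °C. An emulsifiable formulation, water-diluted to the set dose, was then sprayed onto the foliage, and effects were scored three weeks later using previously defined criteria.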

Chinese sprangletop = experiment: Test Example 3: herbicidal effect by foliage application, Wagner pot (Table 18, symbol D); format: in vivo, chinese sprangletop (Leptochloa chinensis); settings: 320 g/ha
Outline: as §2

rice flat sedge = experiment: Test Example 3: herbicidal effect by foliage application, Wagner pot (Table 18, symbol E); format: in vivo, rice flat sedge (Cyperus iria); settings: 320 g/ha
Outline: as §2

southern crabgrass = experiment: Test Example 5: herbicidal effect by foliage application, plastic box (Table 20, symbol F); format: in vivo, southern crabgrass (Digitaria ciliaris); settings: 320 g/ha; for herbicidal effect on F: southern crabgrass (evaluation grade 0-5): foliage application after 14-day growth, evaluated three weeks after application
Outline: (§3)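 Foliar spray test: emulsion formulation diluted in water to a set application rate, sprayed onto 14-day-old plants raised in diluvial soil at 25° C to 30° C under glass. Both herbicidal effect and crop effect rated visually three weeks later.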

green foxtail = experiment: Test Example 5: herbicidal effect by foliage application, plastic box (Table 20, symbol G); format: in vivo, green foxtail (Setaria viridis); settings: 320 g/ha; for herbicidal effect on G: green foxtail (evaluation grade 0-5): foliage application after 14-day growth, evaluated three weeks after application
Outline: as §3

barnyard grass [2] = experiment: Test Example 5: herbicidal effect by foliage application, plastic box (Table 20, symbol H); format: in vivo, barnyard grass (Echinochloa crus-galli); settings: 320 g/ha; for herbicidal effect on H: barnyard grass (evaluation grade 0-5): foliage application after 14-day growth, evaluated three weeks after application
Outline: as §3

wild oat = experiment: Test Example 5: herbicidal effect by foliage application, plastic box (Table 20, symbol I); format: in vivo, wild oat (Avena fatua); settings: 320 g/ha; for herbicidal effect on I: wild oat (evaluation grade 0-5): foliage application after 14-day growth, evaluated three weeks after application
Outline: as §3

blackgrass = experiment: Test Example 5: herbicidal effect by foliage application, plastic box (Table 20, symbol J); format: in vivo, blackgrass (Alopecurus myosuroides); settings: 320 g/ha; for herbicidal effect on J: blackgrass (evaluation grade 0-5): foliage application after 14-day growth, evaluated three weeks after application
Outline: as §3

Italian ryegrass = experiment: Test Example 5: herbicidal effect by foliage application, plastic box (Table 20, symbol K); format: in vivo, Italian ryegrass (Lolium multiflorum); settings: 320 g/ha; for herbicidal effect on K: Italian ryegrass (evaluation grade 0-5): foliage application after 14-day growth, evaluated three weeks after application
Outline: as §3

windgrass = experiment: Test Example 5: herbicidal effect by foliage application, plastic box (Table 20, symbol L); format: in vivo, windgrass (Apera spica-venti); settings: 320 g/ha; for herbicidal effect on L: windgrass (evaluation grade 0-5): foliage application after 14-day growth, evaluated three weeks after application
Outline: as §3

velvetleaf = experiment: Test Example 5: herbicidal effect by foliage application, plastic box (Table 20, symbol M); format: in vivo, velvetleaf (Abutilon theophrasti); settings: 320 g/ha; for herbicidal effect on M: velvetleaf (evaluation grade 0-5): foliage application after 14-day growth, evaluated three weeks after application
Outline: as §3

redroot pigweed = experiment: Test Example 5: herbicidal effect by foliage application, plastic box (Table 20, symbol N); format: in vivo, redroot pigweed (Amaranthus retroflexus); settings: 320 g/ha; for herbicidal effect on N: redroot pigweed (evaluation grade 0-5): foliage application after 14-day growth, evaluated three weeks after application
Outline: as §3

lambsquarters = experiment: Test Example 5: herbicidal effect by foliage application, plastic box (Table 20, symbol O); format: in vivo, lambsquarters (Chenopodium album); settings: 320 g/ha; for herbicidal effect on O: lambsquarters (evaluation grade 0-5): foliage application after 14-day growth, evaluated three weeks after application
Outline: as §3

chickweed = experiment: Test Example 5: herbicidal effect by foliage application, plastic box (Table 20, symbol P); format: in vivo, common chickweed (Stellaria media); settings: 320 g/ha; for herbicidal effect on P: chickweed (evaluation grade 0-5): foliage application after 14-day growth, evaluated three weeks after application
Outline: as §3

persian speedwell = experiment: Test Example 5: herbicidal effect by foliage application, plastic box (Table 20, symbol R); format: in vivo, Persian speedwell (Veronica persica); settings: 320 g/ha; for herbicidal effect on R: persian speedwell (evaluation grade 0-5): foliage application after 14-day growth, evaluated three weeks after application
Outline: as §3

[3] = foliage application, three weeks after application

Row | SMILES | Herbicidal effect, A: late watergrass (late watergrass) | Herbicidal effect, B: Japanese bulrush (Japanese bulrush) | Herbicidal effect, C: oval-leafed pondweed (oval-leafed pondweed) | herbicidal effect on barnyard grass (H) (barnyard grass [1]) | herbicidal effect on Chinese sprangletop (D) (Chinese sprangletop) | herbicidal effect on rice flat sedge (E) (rice flat sedge) | herbicidal effect on F: southern crabgrass (evaluation grade 0-5) (southern crabgrass) | herbicidal effect on G: green foxtail (evaluation grade 0-5) (green foxtail) | herbicidal effect on H: barnyard grass (evaluation grade 0-5) (barnyard grass [2]) | herbicidal effect on I: wild oat (evaluation grade 0-5) (wild oat) | herbicidal effect on J: blackgrass (evaluation grade 0-5) (blackgrass) | herbicidal effect on K: Italian ryegrass (evaluation grade 0-5) (Italian ryegrass) | herbicidal effect on L: windgrass (evaluation grade 0-5) (windgrass) | herbicidal effect on M: velvetleaf (evaluation grade 0-5) (velvetleaf) | herbicidal effect on N: redroot pigweed (evaluation grade 0-5) (redroot pigweed) | herbicidal effect on O: lambsquarters (evaluation grade 0-5) (lambsquarters) | herbicidal effect on P: chickweed (evaluation grade 0-5) (chickweed) | herbicidal effect on R: persian speedwell (evaluation grade 0-5) (persian speedwell) | other results
1 | COc1ccccc1-c1sc2cc(CO)ccc2c1-c1c(O)c(C)nn(C)c1=O [3-135] | 2 (Herbicidal rate of 20% or more and less than 40%) | 2 (Herbicidal rate of 20% or more and less than 40%) | 0 (Herbicidal rate of 5% or less (almost no effect)) | 4 (Herbicidal rate of 70% or more and less than 90%) | 3 (Herbicidal rate of 40% or more and less than 70%) | 2 (Herbicidal rate of 20% or more and less than 40%) |  |  |  |  |  |  |  |  |  |  |  |  | F: southern crabgrass, herbicidal effect grade (southern crabgrass; [3]): 4 (Herbicidal rate of 70% or more and less than 90%); G: green foxtail, herbicidal effect grade (green foxtail; [3]): 5 (Herbicidal rate of 90% or more (almost completely withered)); H: barnyard grass, herbicidal effect grade (barnyard grass [2]; [3]): 3 (Herbicidal rate of 40% or more and less than 70%); I: wild oat, herbicidal effect grade (wild oat; [3]): 4 (Herbicidal rate of 70% or more and less than 90%); J: blackgrass, herbicidal effect grade (blackgrass; [3]): 3 (Herbicidal rate of 40% or more and less than 70%); K: Italian ryegrass, herbicidal effect grade (Italian ryegrass; [3]): 3 (Herbicidal rate of 40% or more and less than 70%); L: windgrass, herbicidal effect grade (windgrass; [3]): 2 (Herbicidal rate of 20% or more and less than 40%); M: velvetleaf, herbicidal effect grade (velvetleaf; [3]): 3 (Herbicidal rate of 40% or more and less than 70%); N: redroot pigweed, herbicidal effect grade (redroot pigweed; [3]): 4 (Herbicidal rate of 70% or more and less than 90%); O: lambsquarters, herbicidal effect grade (lambsquarters; [3]): 2 (Herbicidal rate of 20% or more and less than 40%); P: chickweed, herbicidal effect grade (chickweed; [3]): 4 (Herbicidal rate of 70% or more and less than 90%); R: persian speedwell, herbicidal effect grade (persian speedwell; [3]): 4 (Herbicidal rate of 70% or more and less than 90%)
2 | CCCC(=O)Oc1c(C)nn(C)c(=O)c1-c1c(-c2ccccc2C)sc2c(Cl)cccc12 [4-061] | 3 (Herbicidal rate of 40% or more and less than 70%) | 0 (Herbicidal rate of 5% or less (almost no effect)) | 0 (Herbicidal rate of 5% or less (almost no effect)) | 3 (Herbicidal rate of 40% or more and less than 70%) | 3 (Herbicidal rate of 40% or more and less than 70%) | 4 (Herbicidal rate of 70% or more and less than 90%) | 0 (Herbicidal rate of 5% or less (almost no effect)) | 0 (Herbicidal rate of 5% or less (almost no effect)) | 0 (Herbicidal rate of 5% or less (almost no effect)) | 0 (Herbicidal rate of 5% or less (almost no effect)) | 0 (Herbicidal rate of 5% or less (almost no effect)) | 0 (Herbicidal rate of 5% or less (almost no effect)) | 0 (Herbicidal rate of 5% or less (almost no effect)) | 0 (Herbicidal rate of 5% or less (almost no effect)) | 2 (Herbicidal rate of 20% or more and less than 40%) | 0 (Herbicidal rate of 5% or less (almost no effect)) | 3 (Herbicidal rate of 40% or more and less than 70%) | 2 (Herbicidal rate of 20% or more and less than 40%) | 
3 | CCc1ccccc1-c1sc2c(Cl)cccc2c1-c1c(O)c(C)nn(C)c1=O [4-062] | 0 (Herbicidal rate of 5% or less (almost no effect)) | 2 (Herbicidal rate of 20% or more and less than 40%) | 0 (Herbicidal rate of 5% or less (almost no effect)) | 4 (Herbicidal rate of 70% or more and less than 90%) | 4 (Herbicidal rate of 70% or more and less than 90%) | 3 (Herbicidal rate of 40% or more and less than 70%) | 1 (Herbicidal rate of 5% or more and less than 20%) | 3 (Herbicidal rate of 40% or more and less than 70%) | 1 (Herbicidal rate of 5% or more and less than 20%) | 0 (Herbicidal rate of 5% or less (almost no effect)) | 0 (Herbicidal rate of 5% or less (almost no effect)) | 0 (Herbicidal rate of 5% or less (almost no effect)) | 0 (Herbicidal rate of 5% or less (almost no effect)) | 2 (Herbicidal rate of 20% or more and less than 40%) | 3 (Herbicidal rate of 40% or more and less than 70%) | 0 (Herbicidal rate of 5% or less (almost no effect)) | 3 (Herbicidal rate of 40% or more and less than 70%) | 3 (Herbicidal rate of 40% or more and less than 70%) | 

Reference: patent publication US20230085307A1, “PYRIDAZINONE COMPOUND AND HERBICIDE” (NISSAN CHEMICAL CORPORATION, priority 2019, published 2023)
